{"source": "paper PMC7901654", "about": "“Bioisosteric Discovery of NPA101.3, a Second-Generation RET/VEGFR2 Inhibitor Optimized for Single-Agent Polypharmacology” (Journal of Medicinal Chemistry, 2020)", "key": {"RET/C634R": {"biological_target": "T1, RET/C634R (Homo sapiens, UniProt P07949, C634R)", "T1 construct": "expressed in transfected cells; host or cells: RAT1 fibroblasts (gift of M. Billaud)", "T1 sequence (P07949 29-1072 isoform P07949-2 C634R limits assumed)": "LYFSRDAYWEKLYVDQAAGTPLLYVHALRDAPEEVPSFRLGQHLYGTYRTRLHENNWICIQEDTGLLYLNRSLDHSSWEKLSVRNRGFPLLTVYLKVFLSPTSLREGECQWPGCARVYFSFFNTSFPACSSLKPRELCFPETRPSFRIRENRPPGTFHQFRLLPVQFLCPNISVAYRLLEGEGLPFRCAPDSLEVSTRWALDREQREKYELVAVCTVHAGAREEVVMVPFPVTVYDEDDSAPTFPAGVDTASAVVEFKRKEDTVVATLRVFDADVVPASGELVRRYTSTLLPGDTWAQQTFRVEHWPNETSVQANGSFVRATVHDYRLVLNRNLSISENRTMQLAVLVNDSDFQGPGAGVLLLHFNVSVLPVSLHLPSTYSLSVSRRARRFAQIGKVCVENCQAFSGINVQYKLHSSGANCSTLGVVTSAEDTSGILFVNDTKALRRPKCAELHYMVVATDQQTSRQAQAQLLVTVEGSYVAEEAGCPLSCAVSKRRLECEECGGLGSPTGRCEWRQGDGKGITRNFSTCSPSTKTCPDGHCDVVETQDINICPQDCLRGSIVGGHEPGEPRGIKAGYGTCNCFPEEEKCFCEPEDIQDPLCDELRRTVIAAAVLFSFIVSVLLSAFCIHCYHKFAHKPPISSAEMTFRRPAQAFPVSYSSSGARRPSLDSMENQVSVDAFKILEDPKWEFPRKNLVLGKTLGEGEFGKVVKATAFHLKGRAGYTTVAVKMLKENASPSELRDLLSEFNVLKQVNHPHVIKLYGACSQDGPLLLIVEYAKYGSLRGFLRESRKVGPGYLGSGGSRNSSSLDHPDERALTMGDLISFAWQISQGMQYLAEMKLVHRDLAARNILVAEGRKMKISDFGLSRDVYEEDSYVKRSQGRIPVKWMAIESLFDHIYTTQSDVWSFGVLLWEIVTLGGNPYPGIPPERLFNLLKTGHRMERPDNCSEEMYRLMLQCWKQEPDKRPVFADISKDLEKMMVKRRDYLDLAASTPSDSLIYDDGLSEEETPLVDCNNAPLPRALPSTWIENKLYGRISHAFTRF", "assay": "RET autophosphorylation (Y905, Y1062) Western blot in transfected fibroblasts (RAT1)", "assay_type": "cell-based", "settings": "2 h", "description": "Fibroblasts transfected with RET/C634R were treated with increasing doses of NPA101.3, ranging from 0.1 to 10.0 nM. RET autophosphorylation was assessed by Western blotting using two different antibodies that can recognize phosphorylated Y905, located in the RET kinase activation loop, or Y1062, a multidocking site involved in RET downstream signaling.[41]\nFigure 4 NPA101.3-mediated inhibition of phosphorylation and signaling of oncogenic RET mutants and VEGFR2 in intact cells. Serum-starved RAT1 cells exogenously expressing the (A and B) indicated RET point mutants or (C) NIH3T3 cells exogenously expressing the indicated RET rearranged mutants were treated for 2 h with the indicated concentrations of the compound. Total cell lysates (50 μg) were subjected to immunoblotting with anti-phospho-Y1062 (αp1062) and anti-phospho-Y905 (αp905) RET antibodies. The blots were normalized using the anti-RET (αRET) antibody. (D) HEK293 cells were transiently transfected with human VEGFR2; 36 h after transfection, cells were serum starved for 12 h. The indicated doses of the compound or vehicle (NT) were added for 2 h, and then VEGFA (100 ng/mL) stimulation was applied for 15 min. […]\nProtein lysates were prepared according to standard procedures. […] Immune complexes were detected with the enhanced chemiluminescence kit (Amersham Pharmacia Biotech, Little Chalfont, U.K.). […]"}, "[1]": {"assay": "Toxicity, plasma biochemical analysis", "assay_type": "in vivo, mouse", "settings": "10 mg/kg/day oral, 7 days, mice", "description": "In vivo target (RET and VEGFR2) inhibition was studied by treating animals grafted with NIH3T3 RET/C634Y cells at different doses (0.3, 1, or 3 mg/kg/day p.o.) of NPA101.3 for 2 days and then performing Western blot analysis on protein extracts. […] Then, to determine antitumorigenic activity and to better distinguish RET- and VEGFR2-mediated effects, we tested NPA101.3 in nude mice transplanted with NIH3T3 cells transformed by either RET/C634Y or HRAS/G12V. Before tumors appeared, animals were treated daily with NPA101.3 (1.0, 3.0, or 10.0 mg/kg/day) or left untreated. […] Still, VEGFR2 inhibition was detected also in RAS-driven tumors, an effect that might explain the, albeit reduced, effect of the drug on their growth (Figure S13). Importantly, as predicted, no trace of NPA101.3 demethyl metabolites was detected after 1 or 4 h from oral dosing in mice (Figure S14).\nPatch-Clamp assay. The patch-clamp assay has been outsourced to Aptuit (Verona, Italy). […]\nAfter thawing, cells were maintained in culture using minimum essential medium supplemented with 10% foetal bovine serum, 1% non-essential amino acids, 1% sodium pyruvate, 2mM L-glutamine, 1% pen-strep, 15μg/ml blasticidin and 100 μg/ml hygromycin. hERG channel expression induction was obtained by adding 10 μg/ml tetracycline 48 h before the experiment. […] Current amplitude was measured and […]"}}, "data": [{"compound": "CC(C)(C)c1cc(NC(=O)Cc2ccc(-n3cnc4cc(-c5ccc(S(C)(=O)=O)cc5)ccc43)cc2)no1", "note": "[NPA101.3]", "values": [{"measurement": "RET phosphorylation (Y905, Y1062)", "setting": "RET/C634R; 0.3 nM", "result": "started to be inhibited"}, {"measurement": "RET phosphorylation (Y905, Y1062)", "setting": "RET/C634R; 3.0 nM", "result": "almost completely blocked"}, {"measurement": "standard blood markers of organ damage", "setting": "[1]", "result": "no significant change"}]}]}
